In US9469556B2, “Ballast water treatment system” (University of Strathclyde, priority 2009, dated 2016):

System: organisms in sea water
Experiment: ATP luminescence assay of sea samples treated with biocide dyes
Format: cell-based
Details: for biocidal properties in sea water (total ATP levels): Millport sea samples, different concentrations
Method: Required quantities of each biocide dye were added to the tubes containing the sea sample by means of sterile pipettes in order to give the desired concentrations.
50 mL of each seawater sample was centrifuged at 4,000 rpm for 30 minutes at room temperature. The supernatant was discarded, and the pellets (which may not be visible) were resuspended in 1 mL of ATP Buffer Mix by brisk mixing with a sterile pastette. 0.1 mL of detergent solution was added to each sample. Sample tubes were then placed in a water bath at 90° C. for exactly 5 minutes to lyse seawater organisms. Alternatively the seawater organisms (from 50 mL water) are captured on a 0.22 μm filter membrane and treated with the ATP Buffer Mix, as above.
As a negative control, sterilised seawater (filtered through 0.22 μm filter and/or autoclaved) was used. Where coloured agents were added to the samples, these were also added to the negative control at the same concentration.
One aliquot (0.1 mL) of ATP Assay Mix solution was thawed and added to a sterile transparent 5 mL luminometer tube. This was swirled and allowed to stand at room temperature to allow hydrolysis of endogenous ATP and decrease background.
Immediately after 5 minutes of being at 90° C., 0.1 mL of resuspended seawater sample was added to the reaction tube, swirled briskly for 5 seconds, and immediately measured using a tube luminometer using a 4 second read time.

O=C1OC2(c3ccccc31)c1cc(I)c(O)c(I)c1Oc1c2cc(I)c(O)c1I [erythrosine]
biocidal properties in sea water (total ATP levels) (overnight incubation, with and without light (60 w for 5 minutes) (FIG. 3.3)): effective biocidal properties

CN(C)c1ccc(C(=C2C=CC(=[N+](C)C)C=C2)c2ccc(N(C)C)cc2)cc1 [Gentian Violet]
biocidal properties in sea water (total ATP levels) (with and without incubation (FIG. 3.2)): effective biocidal properties | viability of organisms in sea water (as measured by ATP presence) (dyes used separately (FIG. 4.1)): incomplete reduction in viability
